Where two headings read alike, the source gives them in different places.
Experiments:
[1] = intravenously before initiating ischemia and during a reperfusion of 6 hours; cited from earlier work
[2] = administered at the start (onset) of reperfusion; cited from earlier work
calpain [3] = test: Isolated rat hearts subjected to ischemia/reperfusion, calpain-specific α-fodrin breakdown products; conditions: perfusion of isolated rat hearts, data not shown
Sprague-Dawley rats [4] = conditions: for Attenuation of scar area (LV area stained with picrosirius red): 21 days of reperfusion
[5] = added to the cardioplegic solution and during 60 min of reperfusion; cited from earlier work
calpain [6] = test: Proteolysis of α-fodrin after oral gavage, 60 minutes of reperfusion; type: in vivo, rat; conditions: 120 mg/kg orally (gavage); after 60 minutes of reperfusion
[7] = target: T1, matrix metalloproteinase-2 (MMP-2) (Rattus norvegicus, UniProt P33436); test: MMP-2 gelatinolytic activity by gelatin zymography of myocardial extracts; type: biochemical; conditions: 5, 10 and 50 μM, incubated overnight at 37° C.
T1 construct: myocardial preparations obtained from rats reperfused for 21 days (control group); from tissue; host or cells: rat myocardium (extracts after 21 days of reperfusion)
T1 sequence (P33436 110-662): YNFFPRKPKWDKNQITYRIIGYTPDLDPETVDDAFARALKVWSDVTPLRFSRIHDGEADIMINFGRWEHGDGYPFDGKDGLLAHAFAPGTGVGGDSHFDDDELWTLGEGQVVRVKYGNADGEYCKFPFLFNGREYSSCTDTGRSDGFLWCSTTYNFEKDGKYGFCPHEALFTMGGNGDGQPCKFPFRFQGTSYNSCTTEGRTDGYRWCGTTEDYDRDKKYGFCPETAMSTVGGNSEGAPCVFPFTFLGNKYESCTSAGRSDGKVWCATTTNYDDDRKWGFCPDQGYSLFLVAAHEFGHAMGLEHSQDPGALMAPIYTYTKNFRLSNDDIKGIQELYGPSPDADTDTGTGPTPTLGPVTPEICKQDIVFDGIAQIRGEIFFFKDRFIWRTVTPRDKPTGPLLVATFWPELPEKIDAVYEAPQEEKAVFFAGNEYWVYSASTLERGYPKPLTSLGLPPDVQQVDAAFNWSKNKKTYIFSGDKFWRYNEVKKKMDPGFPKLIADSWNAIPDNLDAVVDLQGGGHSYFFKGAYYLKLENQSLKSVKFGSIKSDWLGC
Description: Activity of MMP-2 was evaluated by gelatin zymography. Briefly, myocardial preparations obtained from rats reperfused for 21 days (control group) were run on a 10% polyacrylamide gel copolymerized with 1.5 mg/ml gelatin. After washing with 2.5% Triton X-100, gels were cut into strips and incubated separately, overnight, in zymography buffer with SNJ-1945 at the concentrations of 5, 10 and 50 μM, DMSO as a vehicle control or the selective MMP inhibitor ONO-4817 (N-[(1 S,3S)-1-[(Ethoxymethoxy)methyl]-4-(hydroxyamino)-3-methyl-4-oxobutyl]-4-phenoxybenzamide) (50 μM, Tocris). It was further examined MMP-2 activity (as % of 0 μM) in samples prepared from animals receiving SNJ-1945 by oral gavage and reperfused for 21 days (Chronic group). Gels were stained in 0.25% Coomassie Brilliant blue G, 40% methanol, and gelatinolytic activities quantitated after destaining.

Sprague-Dawley rats [8] = test: Myocardial hypertrophy and fibrosis induced by isoproterenol; type: in vivo, rat; conditions: 7 days
Description: Chronic administration of isoproterenol is the most common small animal model in the study of myocardial remodeling. In order to study the effect of calpain inhibition in AVR of a different cause than myocardial infarction, myocardial hypertrophy and fibrosis induced by isoproterenol.
The calpain inhibitor SNJ-1945 was co-administered orally once a day to male Sprague-Dawley rats that received 5 mg/Kg/day isoproterenol (ISO) […] for 1 week. Assayed groups were as follows:
Isoproterenol group (ISO): administration of isoproterenol as a single daily subcutaneous injection for 7 consecutive days.
SNJ-1945 treated group (SNJ+ISO): co-administration of SNJ-1945 (orally) and isoproterenol (subcutaneous) for 7 consecutive days.
Hearts were obtained and compared with vehicle-treated and ISO treated rats not receiving the calpain inhibitor.
Echocardiography was performed using a Vivid portable ultrasound system with a i12L-RS 12 MHz transducer (GE Healthcare) as described earlier (Poncelas, Inserte et al. 2015, “Obesity induced by high fat diet attenuates postinfarct myocardial remodeling and dysfunction in adult B6D2F1 mice”, Journal of Molecular and Cellular Cardiology-2015, vol. no. 84, pp.: 154-161).
For the PCR, total RNA was extracted from ischemic and non-ischemic area of heart samples of the three assayed groups using TRIsure™ reagent (BIOLINE, UK) following the manufacturer's protocol. Quantitative RT-PCR was performed using Taqman universal PCR master mix (Applied Biosystems, USA). The amplification program consisted of 50° C. for 2 minutes, 95° C. for 10 minutes and 40 cycles of 95° C. for 15 sec and 60° C. for 1 minutes and was performed in a 7900HT Fast Real-Time PCR System (Applied Biosystems, USA). Primers used for ANP, BNP, collagen I, Myh6, Myh7, and […] were purchased from Thermofisher and were those in the following Gene Expression Assays (Rn00561661_m1, Rn04219558_g1, Rn01463848_m1, Rn00691721_g1, Rn01488777_g1, and Rn00572010_m1, respectively, reference to assays retrievable from Thermofisher catalogue at Mar. 1, 2017; https://www.thermofisher.com/order/genome-databaseldetails/gene-expression/).

Sprague-Dawley rats [9] = test: Inflammatory cell infiltration (CD68 immunohistochemistry) in hearts reperfused for 3 days; type: in vivo, rat; conditions: 3 days of reperfusion
Description: Sprague-Dawley rats (250-300 g) were premedicated with atropine (0.05 mg/kg ip), anaesthetized with ketamine (75 mg/kg ip) and xylazine (10 mg/kg ip), and mechanically ventilated (Inspira ASV, Harvard Apparatus). Anaesthesia was maintained with 1-2% isoflurane and body temperature controlled with a heating pad to 36-37° C. The heart was exposed through the fourth intercostal space and the left anterior descending coronary artery (LAD) ligated using 6/0 silk suture (Ethicon Endo-surgery, OH, USA), 1 mm distal to left atrial appendage. After occlusion for 30 min, the suture was loosened to start reperfusion and buprenorphine (0.05 mg/kg per 6 h, subcutaneously) was given for 48 h. Mice with lack of ST-elevation during ischemia or lack of ST-recovery at reperfusion were excluded from further evaluation.
Macrophage infiltration in the non-infarcted myocardium was analyzed by immunohistochemistry in hearts reperfused for 3 days (n=4 per group).
Myocardial sections were exposed to H2O2/methanol, levamisol (DakoCytomation) and avidin/biotin blocking (Vector Laboratories) to neutralize endogenous peroxidase, phosphatase and biotin, respectively. Sections were probed with CD68 (AbD Serotec) for monocytes/macrophages, incubated with a biotinylated secondary antibody (1:200, ABC Peroxidase standard stainig kit, Thermo Scientific) in 2% normal blocking serum and visualized using 3, 3′-diaminobenzidine (DAB, Sigma). Six random photomicrographs from the infarct area and six from the non-infarcted area for each heart (n=6 per group) were taken at 200× magnification.

[10] = SNJ-1945 orally once a day with isoproterenol 5 mg/Kg/day
[11] = oral co-administration with ISO

For `CCN(CC)Cc1ccc(/C=C/c2ccccc2C(=O)NC(Cc2ccccc2)C(=O)C(N)=O)cc1` (centres unmarked) [A-705253], the “Hemodynamic and contractile function” value [1] is given as “improved”, the Infarct size [1] is given as “reduced” and the Cardioprotective effect [2] is given as “cardioprotective effect”.

With `COCCOCCOC(=O)N[C@@H](CC(C)C)C(=O)N[C@@H](Cc1ccccc1)C(=O)C(=O)NC1CC1` [SNJ-1945, ((1S)-1-((((1S)-1-benzyl-2,3-dioxo-3-(cyclopropylamino)-propyl)amino)carbonyl)-3-methylbutyl)carbamic acid 5-methoxy-3-oxapentyl ester] the “Calpain-specific α-fodrin breakdown products (calpain inhibition)” value (calpain [3]) was “dose-dependent reduction”, the “LV dilation and dysfunction (echocardiography: LVEDD, LVESD, EF)” value (“LV dilation and dysfunction” below) (Sprague-Dawley rats [4]; Ac+Chr group: acute ip plus oral 14 days, measured at 1 week of reperfusion vs control) was “significantly attenuated” and the “Attenuation of scar area (LV area stained with picrosirius red)” value (“Attenuation of scar area” for short) (Sprague-Dawley rats [4]; Ac+Chr group, P=0.003) was 33.7%. The “Levels of α-SMA (marker of fibroblast activation, western-blot)” value (Sprague-Dawley rats [4]; Ac+Chr group, P=0.009) was “reduced”, the “Interstitial fibrosis, acute and chronic phase combined” value (Sprague-Dawley rats [4]; Ac+Chr group, P=0.016) was “No further reduction” and the “β-MHC protein levels (western-blot, relative to GAPDH)” value (Sprague-Dawley rats [4]; Ac+Chr group, P=0.019) was “attenuated”. The “Cardiomyocyte hypertrophy (cross-sectional area, non-ischemic myocardium)” value (Sprague-Dawley rats [4]; Ac+Chr group, P=0.021) was “significantly reduced”, the “LV dilatation, ejection fraction and scar area: combination vs individual treatments” value (Sprague-Dawley rats [4]; Ac+Chr vs acute or chronic alone) was “did not result in a statistically significant improvement” and the “Hypertrophy markers: additive effect when both treatments were combined” value (Sprague-Dawley rats [4]; Ac+Chr vs single treatments) was “No significant additive effect”. For the same compound, the “Cardiomyocyte hypertrophy (cross-sectional area, non-ischemic myocardium)” value (Sprague-Dawley rats [4]; Acute group) was “not acute”, the “β-MHC protein levels (western-blot, relative to GAPDH)” value (Sprague-Dawley rats [4]; Acute group) was “attenuated only in groups treated chronically” and the “Attenuation of scar area” value (Sprague-Dawley rats [4]; Acute group, 120 mg/kg ip at reperfusion, P=0.002) was 29.1%. For the same compound, the “LV dilation and dysfunction” value (Sprague-Dawley rats [4]; Acute group: 120 mg/kg intraperitoneally 5 min before reperfusion, measured at 1 week of reperfusion vs control) was “significantly attenuated”, the “Interstitial collagen deposition in the non-infarcted area” value (Sprague-Dawley rats [4]; Acute group, P=0.109) was “not acute treatment” and the “Attenuation of scar area” value (Sprague-Dawley rats [4]; Chronic group, 120 mg/kg oral 14 days from 24 h of reperfusion, P=0.036) was 22.7%. The “LV dilation and dysfunction” value (Sprague-Dawley rats [4]; Chronic group: 120 mg/kg orally over 14 days starting after 24 h of reperfusion, at 21 days of reperfusion vs control) was “significantly attenuated”, the “Levels of α-SMA (marker of fibroblast activation, western-blot)” value (Sprague-Dawley rats [4]; Chronic group, P=0.012) was “reduced” and the “Interstitial collagen deposition in the non-infarcted area” value (Sprague-Dawley rats [4]; Chronic group, P=0.029) was “reduced”. The “β-MHC protein levels (western-blot, relative to GAPDH)” value (Sprague-Dawley rats [4]; Chronic group, P=0.036) was “attenuated”, the “Cardiomyocyte hypertrophy (cross-sectional area, non-ischemic myocardium)” value (Sprague-Dawley rats [4]; Chronic group, P=0.041) was “significantly reduced” and the “Echocardiographic parameters, acute vs chronic treatment” value (Sprague-Dawley rats [4]; at the end of the experiment (21 days)) was “No significant differences”. For the same compound, the “Survival rate between groups” value (Sprague-Dawley rats [4]; control, acute, chronic, Ac+Chr, overall mortality rate 12.5%) was “no differences”, the “Left ventricular dysfunction after cardioplegic arrest” value [5] was “prevents left ventricular dysfunction” and the “Proteolisis of α-fodrin” value (calpain [6]) was “significantly reduced”. The “MMP-2 activity (gelatinolytic)” value [7] was “does not inhibit”, the “Increase in heart weight induced by isoproterenol” value (Sprague-Dawley rats [8]; [10]) was “reduces the increase” and the “Increase in interventricular wall (IVSWT) thickness induced by isoproterenol, echocardiography” value (Sprague-Dawley rats [8]; [10]) was “reduces the increase”. The “Increase in posterior wall (PWT) thickness induced by isoproterenol, echocardiography” value (Sprague-Dawley rats [8]; [10]) was “reduces the increase”, the “ANP mRNA levels (PCR)” value (Sprague-Dawley rats [8]; [11]) was “reduced” and the “BNP mRNA levels (PCR)” value (Sprague-Dawley rats [8]; [11]) was “reduced”. The Calpain activation (Sprague-Dawley rats [8]; [11]) was “attenuated”, the Cardiomyocyte crossectional area (Sprague-Dawley rats [8]; [11]) was “reduced” and the “Expression of TGFβ induced by ISO (PCR)” value (Sprague-Dawley rats [8]; [11]) was “significantly reduced”. The “Expression of collagen I induced by ISO (PCR)” value (Sprague-Dawley rats [8]; [11]) was “significantly reduced”, the “Intraventricular collagen deposition induced by ISO” value (Sprague-Dawley rats [8]; [11]) was “significantly reduced” and the “β-MHC/α-MHC ratio (PCR)” value (Sprague-Dawley rats [8]; [11]) was “reduced”. For the same compound, the “Infiltration of monocytes/macrophages: acute and chronic treatments combined” value (Sprague-Dawley rats [9]; Ac+Chr group, P<0.001) was “no significant additive effect”, the “Infiltration of monocytes/macrophages (CD68+) in the ischemic area” value (Sprague-Dawley rats [9]; Acute group, P=0.002) was “attenuate” and the “Infiltration of monocytes/macrophages (CD68+) in the non-ischemic area” value (Sprague-Dawley rats [9]; Acute group, P=0.046) was “attenuate”. The “Infiltration of monocytes/macrophages (CD68+) in the non-ischemic area” value (Sprague-Dawley rats [9]; Chronic group, P=0.001) was “attenuate” and the “Infiltration of monocytes/macrophages (CD68+) in the ischemic area” value (Sprague-Dawley rats [9]; Chronic group, P=0.028) was “attenuate”.
